# Patent US8394952B2 (Vertex Pharmaceuticals Incorporated, priority 2006, dated 2013)
# Target: Plk1 (Homo sapiens, UniProt P53350)
# Assay: biochemical
# Plk1, sequence (P53350 20-338): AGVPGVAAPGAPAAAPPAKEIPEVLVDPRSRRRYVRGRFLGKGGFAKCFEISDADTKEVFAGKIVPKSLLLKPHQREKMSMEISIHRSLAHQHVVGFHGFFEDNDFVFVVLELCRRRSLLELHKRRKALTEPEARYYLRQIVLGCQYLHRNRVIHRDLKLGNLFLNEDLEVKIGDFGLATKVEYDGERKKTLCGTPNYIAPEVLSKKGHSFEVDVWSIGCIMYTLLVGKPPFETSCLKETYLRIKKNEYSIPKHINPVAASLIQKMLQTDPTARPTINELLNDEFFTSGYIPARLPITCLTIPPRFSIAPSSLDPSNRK
row,Ki,Structure (SMILES)
1,10 to 100 nM,"COc1cc(C(=O)O)ccc1Nc1ncc2c(n1)N(C1CCCC1)CCC(=O)N2C [Compound I-1, 4-(9-Cyclopentyl-6,7,8,9-tetrahydro-5-methyl-6-oxo-5H-pyrimido[4,5-b][1,4]diazepin-2-ylamino)-3-methoxybenzoic acid]"
2,< 10 nM,COc1cc(C(=O)NCc2ccccc2)ccc1Nc1ncc2c(n1)N(C1CCCC1)CC(C)(C)C(=O)N2C [Compound I-201]
3,< 10 nM,"COc1cc(C(=O)NCc2cc(C)on2)ccc1Nc1ncc2c(n1)N(C1CCCC1)CC(C)(C)C(=O)N2C [Compound I-235, 4-(9-cyclopentyl-5,7,7-trimethyl-6-oxo-6,7,8,9-tetrahydro-5H-pyrimido[4,5-b][1,4]diazepin-2-ylamino)-3-methoxy-N-((5-methylisoxazol-3-yl)methyl)benzamide]"
4,10 to 100 nM,"CC(=O)Nc1cccc(Nc2ncc3c(n2)N(C2CCCC2)CC(C)(C)C(=O)N3C)c1 [Compound I-111, N-(3-(9-cyclopentyl-6,7,8,9-tetrahydro-5,7,7-trimethyl-6-oxo-5H-pyrimido[4,5-b][1,4]diazepin-2-ylamino)phenyl)acetamide]"
5,10 to 100 nM,"COc1cc(C(=O)NC2CCN(C)CC2)ccc1Nc1ncc2c(n1)N(C)CCC(=O)N2C [Compound I-14, 4-(6,7,8,9-tetrahydro-5,9-dimethyl-6-oxo-5H-pyrimido[4,5-b][1,4]diazepin-2-ylamino)-3-methoxy-N-(1-methylpiperidin-4-yl)benzamide]"
6,< 10 nM,"COc1cc(C(=O)N2CC[C@H](F)C2)ccc1Nc1ncc2c(n1)N(C1CCCC1)CC(C)(C)C(=O)N2C [Compound I-32, 9-Cyclopentyl-2-[4-((S)-3-fluoro-pyrrolidine-1-carbonyl)-2-methoxyphenylamino]-5,7,7-trimethyl-5,7,8,9-tetrahydropyrimido[4,5-b][1,4]diazepin-6-one]"
7,< 10 nM,"COCCNC(=O)c1ccc(Nc2ncc3c(n2)N(C2CCCC2)CC(C)(C)C(=O)N3C)c(OC)c1 [Compound I-197, 4-(9-cyclopentyl-5,7,7-trimethyl-6-oxo-6,7,8,9-tetrahydro-5H-pyrimido[4,5-b][1,4]diazepin-2-ylamino)-3-methoxy-N-(2-methoxyethyl)benzamide]"
8,< 10 nM,"COc1cc(-c2ncc[nH]2)ccc1Nc1ncc2c(n1)N(C1CCCC1)CC(C)(C)C(=O)N2C [Compound I-250, 2-(4-(1H-imidazole-2-yl)-2-methoxyphenylamino)-9-cyclopentyl-5,7,7-trimethyl-8,9-dihydro-5H-pyrimido[4,5-b][1,4]diazepin-6(7H)-one]"
9,< 10 nM,"CNC(=O)c1ccc(Nc2ncc3c(n2)N(C2CC4CCC2C4)CC(C)(C)C(=O)N3C)c(OC)c1 (stereo not drawn) [Compound I-191, 4-(9-(bicyclo[2.2.1]heptan-2-yl)-5,7,7-trimethyl-6-oxo-6,7,8,9-tetrahydro-5H-pyrimido[4,5-b][1,4]diazepin-2-ylamino)-3-methoxy-N-methylbenzamide]"
10,10 to 100 nM,"CN1C(=O)CCN(C2CCCC2)c2nc(Nc3ccc(C(=O)O)cc3)ncc21 [Compound I-3, 4-(9-Cyclopentyl-6,7,8,9-tetrahydro-5-methyl-6-oxo-5H-pyrimido[4,5-b][1,4]diazepin-2-ylamino)-benzoic acid]"
11,< 10 nM,"COc1cc(C(=O)NCc2cccnc2)ccc1Nc1ncc2c(n1)N(C1CCCC1)CC1(CC1)C(=O)N2C [Compound I-249, 4-(9′-cyclopentyl-5′-methyl-6′-oxo-5′,6′,8′,9′-tetrahydrospiro[cyclopropane-1,7′-pyrimido[4,5-b][1,4]diazepine]-2′-ylamino)-3-methoxy-N-(pyridin-3-ylmethyl)benzamide]"
12,< 10 nM,"COc1cc(C(=O)Nc2cnccn2)ccc1Nc1ncc2c(n1)N(C1CCCC1)CC(C)(C)C(=O)N2C [Compound I-224, 4-(9-cyclopentyl-5,7,7-trimethyl-6-oxo-6,7,8,9-tetrahydro-5H-pyrimido[4,5-b][1,4]diazepin-2-ylamino)-3-methoxy-N-(pyrazin-2-yl)benzamide]"
13,10 to 100 nM,"CNC(=O)c1ccc(Nc2ncc3c(n2)N(C2CC2)CC(C)(C)C(=O)N3C)c(OC)c1 [Compound I-30, 4-(9-cyclopropyl-6,7,8,9-tetrahydro-5,7,7-trimethyl-6-oxo-5H-pyrimido[4,5-b][1,4]diazepin-2-ylamino)-3-methoxy-N-methylbenzamide]"
14,< 10 nM,"COc1cc(C(=O)NC2(CO)CCCC2)ccc1Nc1ncc2c(n1)N(C1CCCC1)CC(C)(C)C(=O)N2C [Compound I-254, 4-(9-cyclopentyl-5,7,7-trimethyl-6-oxo-6,7,8,9-tetrahydro-5H-pyrimido[4,5-b][1,4]diazepin-2-ylamino)-N-(1-(hydroxymethyl)cyclopentyl)-3-methoxybenzamide]"
15,< 10 nM,"COc1cc(C(=O)NCC2CCCC2)ccc1Nc1ncc2c(n1)N(C1CCCC1)CC(C)(C)C(=O)N2C [Compound I-230, 4-(9-cyclopentyl-5,7,7-trimethyl-6-oxo-6,7,8,9-tetrahydro-5H-pyrimido[4,5-b][1,4]diazepin-2-ylamino)-N-(cyclopentylmethyl)-3-methoxybenzamide]"
16,< 10 nM,"COc1cc(C(=O)NC2CCOCC2)ccc1Nc1ncc2c(n1)N(C1CCCC1)C[C@H](C)C(=O)N2C [Compound I-174, 4-((S)-9-cyclopentyl-6,7,8,9-tetrahydro-5,7-dimethyl-6-oxo-5H-pyrimido[4,5-b][1,4]diazepin-2-ylamino)-N-(tetrahydro-2H-pyran-4-yl)-3-methoxybenzamide]"
17,< 10 nM,COc1cc(C(=O)NC2CCNCC2)ccc1Nc1ncc2c(n1)N(C1CCCC1)CC(C)(C)C(=O)N2C [Compound I-101]
18,10 to 100 nM,"CNC(=O)c1cccc(Nc2ncc3c(n2)N(C2CCCC2)CC(C)(C)C(=O)N3C)c1 [Compound I-46, 3-(9-cyclopentyl-6,7,8,9-tetrahydro-5,7,7-trimethyl-6-oxo-5H-pyrimido[4,5-b][1,4]diazepin-2-ylamino)-N-methylbenzamide]"
19,10 to 100 nM,"CN1C(=O)C(C)(C)CN(C2CCCC2)c2nc(Nc3cccc(NC(=O)N4CCCCC4)c3)ncc21 [Compound I-164, N-(3-(9-cyclopentyl-6,7,8,9-tetrahydro-5,7,7-trimethyl-6-oxo-5H-pyrimido[4,5-b][1,4]diazepin-2-ylamino)phenyl)piperidine-1-carboxamide]"
20,< 10 nM,"COc1cc(C(=O)NC2CC2)ccc1Nc1ncc2c(n1)N(C1CCCC1)C[C@H](C)C(=O)N2C [Compound I-175, 4-((S)-9-cyclopentyl-6,7,8,9-tetrahydro-5,7-dimethyl-6-oxo-5H-pyrimido[4,5-b][1,4]diazepin-2-ylamino)-N-cyclopropyl-3-methoxybenzamide]"
21,< 10 nM,"COc1cc(C(=O)NC(C)(C)CO)ccc1Nc1ncc2c(n1)N(C1CCCC1)CC(C)(C)C(=O)N2C [Compound I-240, 4-(9-cyclopentyl-5,7,7-trimethyl-6-oxo-6,7,8,9-tetrahydro-5H-pyrimido[4,5-b][1,4]diazepin-2-ylamino)-N-(1-hydroxy-2-methylpropan-2-yl)-3-methoxybenzamide]"
22,10 to 100 nM,"CN1C(=O)C(C)(C)CN(C2CCCC2)c2nc(Nc3cccc4[nH]ncc34)ncc21 [Compound I-81, 2-(1H-indazol-4-ylamino)-9-cyclopentyl-8,9-dihydro-5,7,7-trimethyl-5H-pyrimido[4,5-b][1,4]diazepin-6(7H)-one]"
23,< 10 nM,"COc1cc(C(=O)N[C@@H]2CCC[C@H]2O)ccc1Nc1ncc2c(n1)N(C1CCCC1)CC(C)(C)C(=O)N2C [Compound I-244, 4-(9-cyclopentyl-5,7,7-trimethyl-6-oxo-6,7,8,9-tetrahydro-5H-pyrimido[4,5-b][1,4]diazepin-2-ylamino)-N-((1R,2R)-2-hydroxycyclopentyl)-3-methoxybenzamide]"
24,< 10 nM,"COCCNC(=O)c1ccc(Nc2ncc3c(n2)N(C2CCCC2)CCC(=O)N3C)c(OC)c1 [Compound I-11, 4-(9-cyclopentyl-6,7,8,9-tetrahydro-5-methyl-6-oxo-5H-pyrimido[4,5-b][1,4]diazepin-2-ylamino)-3-methoxy-N-(2-methoxyethyl)benzamide]"
25,< 10 nM,"COc1ccc(NC(C)=O)cc1Nc1ncc2c(n1)N(C1CCCC1)CC(C)(C)C(=O)N2C [Compound I-158, N-(3-(9-cyclopentyl-6,7,8,9-tetrahydro-5,7,7-trimethyl-6-oxo-5H-pyrimido[4,5-b][1,4]diazepin-2-ylamino)-4-methoxyphenyl)acetamide]"
26,< 10 nM,"COc1cc(C(=O)Nc2cccnc2OC)ccc1Nc1ncc2c(n1)N(C1CCCC1)CC(C)(C)C(=O)N2C [Compound I-228, 4-(9-cyclopentyl-5,7,7-trimethyl-6-oxo-6,7,8,9-tetrahydro-5H-pyrimido[4,5-b][1,4]diazepin-2-ylamino)-3-methoxy-N-(2-methoxypyridin-3-yl)benzamide]"
27,10 to 100 nM,"CC(=O)Nc1c(F)ccc(Nc2ncc3c(n2)N(C2CCCC2)CC(C)(C)C(=O)N3C)c1F [Compound I-165, N-(3-(9-cyclopentyl-6,7,8,9-tetrahydro-5,7,7-trimethyl-6-oxo-5H-pyrimido[4,5-b][1,4]diazepin-2-ylamino)-2,6-difluorophenyl)acetamide]"
28,10 to 100 nM,"COc1cc(C(=O)O)ccc1Nc1ncc2c(n1)N(C1CCCC1)CC(C)C(=O)N2C (stereo not drawn) [Compound I-10, 4-(9-cyclopentyl-6,7,8,9-tetrahydro-5,7-dimethyl-6-oxo-5H-pyrimido[4,5-b][1,4]diazepin-2-ylamino)-3-methoxybenzoic acid]"
29,< 10 nM,"COc1cc(C(=O)N[C@H](C)c2ccccc2)ccc1Nc1ncc2c(n1)N(C1CCCC1)CC(C)(C)C(=O)N2C [Compound I-226, (R)-4-(9-cyclopentyl-5,7,7-trimethyl-6-oxo-6,7,8,9-tetrahydro-5H-pyrimido[4,5-b][1,4]diazepin-2-ylamino)-3-methoxy-N-(1-phenylethyl)benzamide]"
30,10 to 100 nM,"CN1C(=O)C(C)(C)CN(C2CCCC2)c2nc(Nc3ccc4c(c3)CC(=O)N4)ncc21 [Compound I-45, 2-(2-oxoindolin-5-ylamino)-9-cyclopentyl-8,9-dihydro-5,7,7-trimethyl-5H-pyrimido[4,5-b][1,4]diazepin-6(7H)-one]"
